Results: patent US20260200980A1, “METHODS AND COMPOSITIONS FOR TREATING OCULAR LESIONS” (priority 2022, published 2026)
Several values for one entry are separate records, joined by “and”; a condition that tells them apart may be missing. Equal entries are not always repeated. Where two headings read alike, the source gives them in different places. Where no end group is shown, it is not given here.

Key:
[1] = system: ocular lesion; assay: Lesion size in patients 24 weeks after intravitreal ONL1204; assay type: in vivo, human; details: for % Change in Lesion Growth: week 24, study eye relative to untreated fellow eye; for % Change Based on Sqrt Transformation / Baseline Lesion Size / Week 24 Lesion Size: study eye; for % Change Based on Sqrt Transformation: baseline to week 24, square root of lesion area; for Baseline Lesion Size: baseline prior to treatment
Procedure: The primary endpoints were the safety profile associated with single and multiple dosing in this study, including: adverse event reporting, clinical evaluations including lesion size and clinical evaluation.
Baseline best lesion size (area in square millimeters) was measured prior to treatment with ONL1204. […] The following doses were evaluated: 50 ug, 100 ug, and 200 ug (micrograms).
(§1) Table 1A and 1B show reduced lesion sizes associated with treated eyes at week 24. Percent (%) change is measured relative the untreated fellow eye. […] Table 3A, 3B and 3C show reduced lesion sizes associated with treated eyes (Tables 3A and 3C) in addition to associated historical lesion growth (Tables 3A and 3B). […] For “% Change Based on Sqrt Transformation” and similar measures, the square root of the lesion area was determined and the % difference between the starting value and the last timepoint was calculated. Percent (%) change is measured relative the untreated fellow eye.

[2] = system: visual function; assay: ETDRS Vision (Letters Read), BCVA, in patients treated with ONL1204; assay type: in vivo, human
[3] = system: ocular lesion; assay: Lesion size in historical (V1-V3) and treatment phase (V3-V9), 2 injections of ONL1204 3 months apart; assay type: in vivo, human; details: for % Change Nat His Phase (Using Sqrt Transformation): V1 to V3, 24 weeks before treatment; for % Change Tx Phase (Using Sqrt Transformation) / V1 Lesion Size / V3 Lesion Size / V9 Lesion Size: study eye; for % Change Tx Phase (Using Sqrt Transformation): V3 to V9, 24 weeks; for % Change Tx Phase (Using Sqrt Transformation) / V9 Lesion Size: 2 injections 3 months apart; for V1 Lesion Size: visit 1, start of historical phase, before treatment; for V3 Lesion Size: visit 3, end of historical phase, start of treatment; for V9 Lesion Size: visit 9, 24 weeks after first treatment
Procedure: as §1

[4] = system: male rabbit NaIO3 model; assay: Sodium iodate (NaIO3) challenge study, duration of protection; assay type: in vivo; details: for lesion area vs negative control: NaIO3 challenge Day 4
Procedure: Animals were anesthetized with isoflurane vapors to effect. […] No reflux was noted on the dosing record.
Animals were anesthetized with isoflurane vapors to effect. […] NaIO3 causes one or more regions of atrophy and depigmentation which creates a window into the choroid.
The resulting area was then measured.

[5] = rabbit, in vivo
Procedure: Pharmacokinetic analyses were performed on the vitreous humor concentration data.
Seven animals received a repeat IVT dose at 2 mg/mL (0.1 mg/eye) on Day 90.
Vitreous humor, retina, and choroid were collected on days 1, 7, 14, 28, 42, 61, 90, 97, 151, and 168. Eyes were enucleated, snap frozen using liquid nitrogen, and kept on dry ice or frozen at −80° C. until dissected for collection of aqueous humor, vitreous humor, retina, choroid, iris-ciliary body (ICB), and lens.
To homogenize ocular tissue samples, weighed amounts of control bovine vitreous humor, retina, and choroid were homogenized in USA scientific impact resistant microtubes containing 2.8 mm ceramic beads. Unknown rabbit vitreous humor, retina, and choroid samples were homogenized in USA scientific impact resistant microtubes containing 2.8 mm ceramic beads. […]

[6] = minipig, in vivo
Procedure: Seven animals received a repeat IVT dose at 2 mg/mL (0.1 mg/eye) on Day 90. […] Vitreous humor, retina, and choroid were collected on days 1, 7, 14, 28, and 88.

Which results are given for HHIYLGAVNYIY-NH2 [ONL1204]?
% Change in Lesion Growth ([1]; 50 ug): −45%; % Change in Lesion Growth ([1]; 100 ug): −27% and −32%; % Change in Lesion Growth ([1]; 200 ug): −57% and −53%; lesion size growth ([1]; all patients, doses 50, 100 and 200 ug, compared to untreated fellow eye): reduction in lesion size growth; % Change Based on Sqrt Transformation ([1]; 50 ug): 4.14% and 6.95%; Baseline Lesion Size ([1]; 100 ug intravitreal): 20.1 mm^2 and 24.16 mm^2; Week 24 Lesion Size ([1]; 100 ug intravitreal): 21.2 mm2 and 27.61 mm2; % Change Based on Sqrt Transformation ([1]; 100 ug): 2.70% and 6.90%; Baseline Lesion Size ([1]; 200 ug intravitreal): 9.37 mm^2 and 9.09 mm^2; Week 24 Lesion Size ([1]; 200 ug intravitreal): 9.81 mm2 and 9.78 mm2; % Change Based on Sqrt Transformation ([1]; 200 ug): 2.32% and 3.73%; visual function (e.g., BCVA as measured by letters read) ([2]; eyes having a patchy lesion): improved visual function; ETDRS Vision (Letters Read) Week 1 ([2]; study eye, 50 μg): 42 Letters Read and 33 Letters Read; ETDRS Vision (Letters Read) Week 2 ([2]; study eye, 50 μg): 34 Letters Read and 33 Letters Read; ETDRS Vision (Letters Read) Week 4 ([2]; study eye, 50 μg): 36 Letters Read and 33 Letters Read; ETDRS Vision (Letters Read) Week 12 ([2]; study eye, 50 μg): 36 Letters Read; ETDRS Vision (Letters Read) Week 24 ([2]; study eye, 50 μg): 42 Letters Read and 35 Letters Read; ETDRS Vision (Letters Read) Screening/Baseline ([2]; study eye, 50 μg, before treatment): 23 Letters Read and 26 Letters Read; ETDRS Vision (Letters Read) Week 1 ([2]; study eye, 100 μg): 13 Letters Read; ETDRS Vision (Letters Read) Week 2 ([2]; study eye, 100 μg): 13 Letters Read and 19 Letters Read; ETDRS Vision (Letters Read) Week 12 ([2]; study eye, 100 μg): 15 Letters Read and 27 Letters Read; ETDRS Vision (Letters Read) Week 24 ([2]; study eye, 100 μg): 15 Letters Read and 24 Letters Read; ETDRS Vision (Letters Read) Screening/Baseline ([2]; study eye, 100 μg, before treatment): 14 Letters Read and 11 Letters Read; ETDRS Vision (Letters Read) Week 1 ([2]; study eye, 200 μg): 29 Letters Read and 31 Letters Read; ETDRS Vision (Letters Read) Week 2 ([2]; study eye, 200 μg): 32 Letters Read and 30 Letters Read; ETDRS Vision (Letters Read) Week 4 ([2]; study eye, 200 μg): 30 Letters Read and 38 Letters Read; ETDRS Vision (Letters Read) Week 12 ([2]; study eye, 200 μg): 28 Letters Read and 41 Letters Read; ETDRS Vision (Letters Read) Week 24 ([2]; study eye, 200 μg): 26 Letters Read and 40 Letters Read; ETDRS Vision (Letters Read) Baseline ([2]; study eye, 200 μg, baseline visit, on a different day from screening, before treatment): 25 Letters Read; ETDRS Vision (Letters Read) Screening/Baseline ([2]; study eye, 200 μg, before treatment): 39 Letters Read; ETDRS Vision (Letters Read) Screening ([2]; study eye, 200 μg, screening visit, on a different day from baseline, before treatment): 19 Letters Read; % Change Nat His Phase (Using Sqrt Transformation) ([3]; study eye later given 50 ug): 5.31% and 1.38%; % Change Nat His Phase (Using Sqrt Transformation) ([3]; study eye later given 100 ug): 2.97% and 3.20%; % Change Tx Phase (Using Sqrt Transformation) ([3]; 50 ug): 3.74% and 0.05%; V1 Lesion Size ([3]; 50 ug): 12.08 mm^2 and 18.41 mm^2; V3 Lesion Size ([3]; 50 ug): 13.4 mm^2 and 18.92 mm^2; V9 Lesion Size ([3]; 50 ug): 14.42 mm^2 and 18.94 mm^2; % Change Tx Phase (Using Sqrt Transformation) ([3]; 100 ug): 3.37% and 1.39%; V1 Lesion Size ([3]; 100 ug): 5.64 mm^2 and 7.7 mm^2; V3 Lesion Size ([3]; 100 ug): 5.98 mm^2 and 8.2 mm^2; V9 Lesion Size ([3]; 100 ug): 6.39 mm^2 and 8.43 mm^2; lesion area vs negative control ([4]; 25 ug per eye IVT Day 0): significantly lower than negative control; lesion area vs negative control ([4]; 100 ug per eye IVT Day 0): significantly lower than negative control; lesion size vs negative controls and 25 ug group ([4]; 100 ug per eye IVT Day 0, NaIO3 challenge Day 14): significantly smaller lesion size; lesion size vs negative control animals and 25 ug group ([4]; 100 ug per eye IVT Day 0, NaIO3 challenge Day 28): significantly smaller lesion size; mean lesion size ([4]; across challenge time points): substantive reduction; detection in retinal tissue as well as the vitreous humor [5]: detected; detection in the vitreous humor [5]: detected; detection in the vitreous humor [6]: detected
